Experimental data published in ChEMBL document CHEMBL1255267, “Reduced Susceptibility of Proteus mirabilis to triclosan” (2008).
In brackets after ≈: the same amount, converted by molar mass.

Experiments:
Format in all cases: functional
[1] = test system: Proteus mirabilis; experiment: Antibacterial activity against Proteus mirabilis M 12 mutant after 18 hrs by Etest method
[2] = test system: Proteus mirabilis; experiment: Antibacterial activity against Proteus mirabilis M 42 mutant after 18 hrs by Etest method
[3] = test system: Proteus mirabilis; experiment: Antibacterial activity against Proteus mirabilis M 26 mutant after 18 hrs by Etest method
[4] = test system: Proteus mirabilis; experiment: Antibacterial activity against Proteus mirabilis NP14 after 18 hrs by Etest method
[5] = test system: Proteus mirabilis; experiment: Antibacterial activity against Proteus mirabilis NP43 after 18 hrs by Etest method
[6] = test system: Proteus mirabilis; experiment: Antibacterial activity against Proteus mirabilis M 44 mutant after 18 hrs by Etest method
[7] = test system: Proteus mirabilis; experiment: Antibacterial activity against Proteus mirabilis M 23 mutant after 18 hrs by Etest method
[8] = test system: Proteus mirabilis; experiment: Antibacterial activity against Proteus mirabilis M 48 mutant after 18 hrs by Etest method
[9] = test system: Escherichia coli; experiment: Antibacterial activity against Escherichia coli 10418 after 18 hrs by Etest method
[10] = test system: Proteus mirabilis; experiment: Antibacterial activity against Proteus mirabilis M 19 mutant after 18 hrs by Etest method
[11] = test system: Proteus mirabilis; experiment: Antibacterial activity against Proteus mirabilis NP55 after 18 hrs by Etest method
[12] = test system: Proteus mirabilis; experiment: Antibacterial activity against Proteus mirabilis M 21 mutant after 18 hrs by Etest method
[13] = test system: Proteus mirabilis; experiment: Antibacterial activity against Proteus mirabilis M 17 mutant after 18 hrs by Etest method
[14] = test system: Proteus mirabilis; experiment: Antibacterial activity against Proteus mirabilis M 55 mutant after 18 hrs by Etest method
[15] = test system: Proteus mirabilis; experiment: Antibacterial activity against Proteus mirabilis M 29 mutant after 18 hrs by Etest method
[16] = test system: Proteus mirabilis; experiment: Antibacterial activity against Proteus mirabilis M 40 mutant after 18 hrs by Etest method
[17] = test system: Proteus mirabilis; experiment: Antibacterial activity against Proteus mirabilis M 31 mutant after 18 hrs by Etest method
[18] = test system: Proteus mirabilis; experiment: Antibacterial activity against Proteus mirabilis M 35 mutant after 18 hrs by Etest method
[19] = test system: Proteus mirabilis; experiment: Antibacterial activity against Proteus mirabilis NP37 after 18 hrs by Etest method
[20] = test system: Proteus mirabilis; experiment: Antibacterial activity against Proteus mirabilis B2 after 18 hrs by Etest method
[21] = test system: Proteus mirabilis; experiment: Effect on catheter blockage in Bladder model inoculated with Proteus mirabilis M 55 mutant
[22] = test system: Proteus mirabilis; experiment: Effect on catheter blockage in Bladder model inoculated with wild-type Proteus mirabilis B2
[23] = test system: Proteus mirabilis; experiment: Effect on viable cells in urine at time of catheter blockage in Bladder model inoculated with Proteus mirabilis M 55 mutant
[24] = test system: Proteus mirabilis; experiment: Effect on viable cells in urine at time of catheter blockage in Bladder model inoculated with Proteus mirabilis M 48 mutant
[25] = test system: Proteus mirabilis; experiment: Effect on pH of residual urine at time of catheter blockage in Bladder model inoculated with Proteus mirabilis M 55 mutant
[26] = test system: Proteus mirabilis; experiment: Effect on pH of residual urine at time of catheter blockage in Bladder model inoculated with Proteus mirabilis M 48 mutant
[27] = test system: Proteus mirabilis; experiment: Effect on pH of residual urine at time of catheter blockage in Bladder model inoculated with wild-type Proteus mirabilis B2
[28] = test system: Proteus mirabilis; experiment: Effect on viable cells in urine at time of catheter blockage in Bladder model inoculated with wild-type Proteus mirabilis B2
[29] = test system: Proteus mirabilis; experiment: Effect on catheter blockage in Bladder model inoculated with Proteus mirabilis M 48 mutant

| Compound | MIC ([1]; M 12, 18 h) | MIC ([2]; M 42, 18 h) | MIC ([3]; M 26, 18 h) | MIC ([4]; NP14, 18 h) | MIC ([5]; NP43, 18 h) | MIC ([6]; M 44, 18 h) | MIC ([7]; M 23, 18 h) | MIC ([8]; M 48, 18 h) | MIC ([9]; Escherichia coli, 10418, 18 h) | MIC ([10]; M 19, 18 h) | MIC ([11]; NP55, 18 h) | MIC ([12]; M 21, 18 h) | MIC ([13]; M 17, 18 h) | MIC ([14]; M 55, 18 h) | MIC ([15]; M 29, 18 h) | MIC ([16]; M 40, 18 h) | MIC ([17]; M 31, 18 h) | MIC ([18]; M 35, 18 h) | MIC ([19]; NP37, 18 h) | MIC ([20]; B2, 18 h) | other results |
| --- | --- | --- | --- | --- | --- | --- | --- | --- | --- | --- | --- | --- | --- | --- | --- | --- | --- | --- | --- | --- | --- |
| CC1(C)S[C@@H]2[C@H](NC(=O)[C@H](N)c3ccccc3)C(=O)N2[C@H]1C(=O)O [AMPICILLIN] | 0.13 µg/mL (≈ 0.372 µM) | > 256 µg/mL | > 256 µg/mL | 16 µg/mL (≈ 45.8 µM) | 0.4 µg/mL (≈ 1.14 µM) | > 256 µg/mL | 12 µg/mL (≈ 34.3 µM) | > 256 µg/mL | 0.5 µg/mL (≈ 1.43 µM) | 12 µg/mL (≈ 34.3 µM) | > 256 µg/mL | 16 µg/mL (≈ 45.8 µM) | 0.19 µg/mL (≈ 0.544 µM) | > 256 µg/mL | > 256 µg/mL | > 256 µg/mL | > 256 µg/mL | > 256 µg/mL | > 256 µg/mL | > 256 µg/mL | – |
| CC1=C(C(=O)O)N2C(=O)[C@@H](NC(=O)[C@H](N)c3ccccc3)[C@H]2SC1 [CEPHALEXIN ANHYDROUS] | 1.5 µg/mL (≈ 4.32 µM) | 4 µg/mL (≈ 11.5 µM) | 3 µg/mL (≈ 8.64 µM) | 3 µg/mL (≈ 8.64 µM) | 4 µg/mL (≈ 11.5 µM) | 4 µg/mL (≈ 11.5 µM) | 3 µg/mL (≈ 8.64 µM) | 3 µg/mL (≈ 8.64 µM) | 2 µg/mL (≈ 5.76 µM) | 4 µg/mL (≈ 11.5 µM) | 4 µg/mL (≈ 11.5 µM) | 3 µg/mL (≈ 8.64 µM) | 1 µg/mL (≈ 2.88 µM) | 4 µg/mL (≈ 11.5 µM) | 2 µg/mL (≈ 5.76 µM) | 3 µg/mL (≈ 8.64 µM) | 3 µg/mL (≈ 8.64 µM) | 3 µg/mL (≈ 8.64 µM) | 4 µg/mL (≈ 11.5 µM) | 6 µg/mL (≈ 17.3 µM) | – |
| O=C(O)c1cn(C2CC2)c2cc(N3CCNCC3)c(F)cc2c1=O [CIPROFLOXACIN] | 0.006 µg/mL (≈ 0.0181 µM) | 0.016 µg/mL (≈ 0.0483 µM) | 0.012 µg/mL (≈ 0.0362 µM) | 0.06 µg/mL (≈ 0.181 µM) | 0.01 µg/mL (≈ 0.0302 µM) | 0.03 µg/mL (≈ 0.0905 µM) | 0.05 µg/mL (≈ 0.151 µM) | 0.02 µg/mL (≈ 0.0604 µM) | – | 0.05 µg/mL (≈ 0.151 µM) | 0.016 µg/mL (≈ 0.0483 µM) | 0.05 µg/mL (≈ 0.151 µM) | 0.006 µg/mL (≈ 0.0181 µM) | 0.02 µg/mL (≈ 0.0604 µM) | 0.008 µg/mL (≈ 0.0241 µM) | 0.012 µg/mL (≈ 0.0362 µM) | 0.008 µg/mL (≈ 0.0241 µM) | 0.016 µg/mL (≈ 0.0483 µM) | 0.02 µg/mL (≈ 0.0604 µM) | 0.02 µg/mL (≈ 0.0604 µM) | – |
| CCn1cc(C(=O)O)c(=O)c2ccc(C)nc21 [NALIDIXIC ACID] | 1.5 µg/mL (≈ 6.46 µM) | 2 µg/mL (≈ 8.61 µM) | 1.5 µg/mL (≈ 6.46 µM) | 3 µg/mL (≈ 12.9 µM) | 2 µg/mL (≈ 8.61 µM) | 1.5 µg/mL (≈ 6.46 µM) | 2 µg/mL (≈ 8.61 µM) | 1.5 µg/mL (≈ 6.46 µM) | 0.38 µg/mL (≈ 1.64 µM) | 2 µg/mL (≈ 8.61 µM) | 3 µg/mL (≈ 12.9 µM) | 3 µg/mL (≈ 12.9 µM) | 2 µg/mL (≈ 8.61 µM) | 1.5 µg/mL (≈ 6.46 µM) | 2 µg/mL (≈ 8.61 µM) | 1.5 µg/mL (≈ 6.46 µM) | 1.5 µg/mL (≈ 6.46 µM) | 2 µg/mL (≈ 8.61 µM) | 4 µg/mL (≈ 17.2 µM) | 2 µg/mL (≈ 8.61 µM) | – |
| O=C1CN(/N=C/c2ccc([N+](=O)[O-])o2)C(=O)N1 [NITROFURANTOIN] | 12 µg/mL (≈ 50.4 µM) | 48 µg/mL (≈ 202 µM) | 24 µg/mL (≈ 101 µM) | 32 µg/mL (≈ 134 µM) | 48 µg/mL (≈ 202 µM) | 32 µg/mL (≈ 134 µM) | 32 µg/mL (≈ 134 µM) | 24 µg/mL (≈ 101 µM) | 2 µg/mL (≈ 8.4 µM) | 32 µg/mL (≈ 134 µM) | 64 µg/mL (≈ 269 µM) | 48 µg/mL (≈ 202 µM) | 12 µg/mL (≈ 50.4 µM) | 48 µg/mL (≈ 202 µM) | 16 µg/mL (≈ 67.2 µM) | 64 µg/mL (≈ 269 µM) | 24 µg/mL (≈ 101 µM) | 32 µg/mL (≈ 134 µM) | 24 µg/mL (≈ 101 µM) | 64 µg/mL (≈ 269 µM) | – |
| CCn1cc(C(=O)O)c(=O)c2cc(F)c(N3CCNCC3)cc21 [NORFLOXACIN] | 0.02 µg/mL (≈ 0.0626 µM) | 0.03 µg/mL (≈ 0.0939 µM) | 0.03 µg/mL (≈ 0.0939 µM) | 0.25 µg/mL (≈ 0.783 µM) | 0.05 µg/mL (≈ 0.157 µM) | 0.05 µg/mL (≈ 0.157 µM) | 0.19 µg/mL (≈ 0.595 µM) | 0.05 µg/mL (≈ 0.157 µM) | 0.02 µg/mL (≈ 0.0626 µM) | 0.19 µg/mL (≈ 0.595 µM) | 0.05 µg/mL (≈ 0.157 µM) | 0.19 µg/mL (≈ 0.595 µM) | 0.02 µg/mL (≈ 0.0626 µM) | 0.05 µg/mL (≈ 0.157 µM) | 0.03 µg/mL (≈ 0.0939 µM) | 0.03 µg/mL (≈ 0.0939 µM) | 0.02 µg/mL (≈ 0.0626 µM) | 0.03 µg/mL (≈ 0.0939 µM) | 0.05 µg/mL (≈ 0.157 µM) | 0.05 µg/mL (≈ 0.157 µM) | – |
| Oc1cc(Cl)ccc1Oc1ccc(Cl)cc1Cl [TRICLOSAN] | 40 µg/mL (≈ 138 µM) | 0.8 µg/mL (≈ 2.76 µM) | 20 µg/mL (≈ 69.1 µM) | 0.2 µg/mL (≈ 0.691 µM) | 0.2 µg/mL (≈ 0.691 µM) | 40 µg/mL (≈ 138 µM) | 5 µg/mL (≈ 17.3 µM) | 2 µg/mL (≈ 6.91 µM) | 0.2 µg/mL (≈ 0.691 µM) | 40 µg/mL (≈ 138 µM) | 0.2 µg/mL (≈ 0.691 µM) | 5 µg/mL (≈ 17.3 µM) | 40 µg/mL (≈ 138 µM) | 40 µg/mL (≈ 138 µM) | 10 µg/mL (≈ 34.5 µM) | 40 µg/mL (≈ 138 µM) | 5 µg/mL (≈ 17.3 µM) | 40 µg/mL (≈ 138 µM) | 0.1 µg/mL (≈ 0.345 µM) | 0.2 µg/mL (≈ 0.691 µM) | Time [21]: 44 h; Time [22]: >48 h; CFU/ml [23]: 4.2 ×10⁷ /ml; CFU/ml [24]: 5.44 ×10⁴ /ml; pH [25]: 8.84; pH [26]: 6.51; pH [27]: 6.28; CFU/ml [28]: 2.07 ×10³ /ml; Time [29]: >48 h |
| COc1cc(Cc2cnc(N)nc2N)cc(OC)c1OC [TRIMETHOPRIM] | 0.19 µg/mL (≈ 0.654 µM) | > 32 µg/mL | > 32 µg/mL | > 32 µg/mL | 0.4 µg/mL (≈ 1.38 µM) | > 32 µg/mL | > 32 µg/mL | > 32 µg/mL | 0.03 µg/mL (≈ 0.103 µM) | > 32 µg/mL | > 32 µg/mL | > 32 µg/mL | 0.25 µg/mL (≈ 0.861 µM) | > 32 µg/mL | > 32 µg/mL | > 32 µg/mL | > 32 µg/mL | > 32 µg/mL | > 32 µg/mL | > 32 µg/mL | – |
| GENTAMICIN | – | – | – | – | – | – | – | – | – | – | – | – | – | – | – | – | – | – | – | – | MIC [1]: 0.06 µg/mL; MIC [2]: 0.25 µg/mL; MIC [3]: 0.13 µg/mL; MIC [4]: 0.13 µg/mL; MIC [5]: 0.1 µg/mL; MIC [6]: 0.38 µg/mL; MIC [7]: 0.09 µg/mL; MIC [8]: 0.25 µg/mL; MIC [9]: 0.09 µg/mL; MIC [10]: 0.13 µg/mL; MIC [11]: 0.1 µg/mL; MIC [12]: 0.13 µg/mL; MIC [13]: 0.06 µg/mL; MIC [14]: 0.38 µg/mL; MIC [15]: 0.19 µg/mL; MIC [16]: 0.13 µg/mL; MIC [17]: 0.13 µg/mL; MIC [18]: 0.25 µg/mL; MIC [19]: 0.38 µg/mL; MIC [20]: 0.38 µg/mL |
